# Test results: publication PMC12644462, “A novel radiosensitizer α-sulfoquinovosyl-acylpropanediol (SQAP) inhibits DNA repair pathways and sensitize cells to cancer chemotherapeutic agents” (Scientific Reports, 2025)
# Tests used:
# [1] = test system: poly (ADP-ribose) glycohydrolase (PARG); parameters: method as in PMID 37973295; conditions: cited from earlier work
# [2] = test system: CHO wild type, EM9, xrs5 and 51D1 cells; experiment: Sister chromatid exchange assay; type: cell-based, Chinese hamster
# Method: CHO cells were synchronized into G1 phase using mitotic shake-off method. Cells in the G1 phase were irradiated, and 10 µM of BrdU was added. After 20 h, colcemid was added for 6 h to arrest cells in metaphase. Collected cells were treated with hypotonic KCl solution and fixed using methanol: acetic acid (3:1) as the standard method. Metaphase chromosome spread was prepared on glass slides and treated with 5 µg/mL of Hoechst 33258 solution for 15 min and exposed to UVB for 15 min and treated with 2X SSC solution at 80 °C for 15 min. Cells were stained with 5% Giemsa stain solution. At least 50 metaphase spreads were analyzed for SCE scoring per experiment.
# [3] = test system: seven canine cancer cell lines (Abrams, D17, Moresco, CML-6M, Jones, CML-10C2, STSA-1); experiment: Colony formation assay, gamma-ray radiosensitization in normoxia or hypoxia; type: cell-based; conditions: 30 µM SQAP
# Method: Irradiation was conducted by JL Shepard Mark I ^137Cs irradiator (nominal 6000 Ci) with dose rate of approximately 2.5 Gy per minute at room temperature. For hypoxia irradiation, cell cultures were placed in Aneropak Kenki system (Mitsubishi Gas Chemical, Tokyo, Japan) with oxygen meter to confirm pO2 below 0.1%. Cells were kept in hypoxia for 3 h before irradiation.
# [4] = test system: CHO cells; experiment: G2 premature chromosome condensation (PCC) assay; type: cell-based, Chinese hamster
# Method: Following treatment with SQAP for 1 h, exponentially growing CHO cells were irradiated and treated with 50 nM of Calyculin A (Sigma-Aldrich) for 30 min as previously described. Cells were then fixed and stained as chromosome aberration analysis. Under a Zeiss Axioskop microscope, chromatid gaps, breaks, iso-breaks and exchanges were all scored as G2-PCC chromatid breaks. At least 50 PCC-spreads were scored in three independent experiments.
smiles,measurement,setting,value
"CCCCCCCCCCCCCCCCCC(=O)OCCCO[C@H]1O[C@H](CS(=O)(=O)O)[C@@H](O)[C@H](O)[C@H]1O [SQAP, Alpha-sulfoquinovosylacyl-1,3-propanediol]",PARG inhibition,[1],inhibitory effect
same,spontaneous sister chromatid exchange formation,"[2]; 51D1 (rad51d mutant, HR deficient), non toxic SQAP concentrations",no reduction
same,spontaneous sister chromatid exchange formation,"[2]; CHO wild type, 5 to 20 µM SQAP, significant from 10 µM",reduced
same,spontaneous sister chromatid exchange formation,"[2]; EM9 (XRCC1 mutant), 5 to 20 µM SQAP, significant from 10 µM",reduced
same,spontaneous sister chromatid exchange formation,"[2]; xrs5 (Ku80 mutant), 5 to 20 µM SQAP, significant from 10 µM",reduced
same,changes in OER values with and without SQAP treatment,[3],not observed
same,radiosensitization to gamma-ray exposure,[3]; both normoxic and hypoxia conditions,induced radiosensitization
same,residual PCC levels,"[4]; 1 Gy, after 2 h, with SQAP",~4.8
same,number of G2-PCC chromatid breaks,"[4]; immediately after 1 Gy irradiation, SQAP-treated",approximately 10
